Laboratory results taken from US20230278984A1 (Global Blood Therapeutics, Inc., priority 2020, published 2023).

Assays:
[1] = test system: mouse model of beta-thalassemia; settings: cited from earlier work
[2] = biological target: T1, Human pyruvate kinase R (PKR) (Homo sapiens, UniProt P30613); assay: Biochemical assay for activation of pyruvate kinase R (Kinase-Glo luminescence measurement of ATP generation); settings: for AC50: PKR biochemical assay, 0.1 nM PKR, 0.3 mM ADP, 2 mM FBP, 0.1 mM PEP; for Emax: maximal activation level relative to the activation level achieved by the literature compound AG-348 @ 10 μM
T1 construct: Human pyruvate kinase R (PKR), residues 14-574; 6x-His (N, cleaved yes); 8x-Arg (N, cleaved yes); SUMO (N, cleaved yes); host or cells: E. coli
Outline: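 Recombinant human PKR (residues 14-574), E. coli-expressed with His-Arg-SUMO tag removed, purified by Ni-NTA, anion exchange and size exclusion. Activation measured as ATP generation via Kinase-Glo luminescence.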

T1 sequence (P30613 14-574): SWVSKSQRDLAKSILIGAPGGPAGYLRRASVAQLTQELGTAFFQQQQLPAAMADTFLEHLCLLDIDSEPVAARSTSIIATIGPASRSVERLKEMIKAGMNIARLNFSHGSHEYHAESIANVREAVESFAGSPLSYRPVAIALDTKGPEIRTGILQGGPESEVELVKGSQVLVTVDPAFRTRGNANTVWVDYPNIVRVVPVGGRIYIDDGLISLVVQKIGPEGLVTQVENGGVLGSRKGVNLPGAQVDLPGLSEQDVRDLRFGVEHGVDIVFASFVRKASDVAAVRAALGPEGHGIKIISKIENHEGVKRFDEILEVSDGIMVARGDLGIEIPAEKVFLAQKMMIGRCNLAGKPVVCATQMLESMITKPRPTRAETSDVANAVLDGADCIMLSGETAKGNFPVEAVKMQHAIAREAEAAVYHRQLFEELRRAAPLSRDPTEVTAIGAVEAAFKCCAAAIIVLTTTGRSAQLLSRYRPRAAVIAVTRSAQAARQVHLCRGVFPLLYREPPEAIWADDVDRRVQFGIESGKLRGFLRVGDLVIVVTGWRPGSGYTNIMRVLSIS

AC50 [2] [nM] | Emax [2] [%] | Structure (SMILES) | PK activity, ATP levels and RBC parameters [1]
– | – | O=C(c1ccc(NS(=O)(=O)c2cccc3cccnc23)cc1)N1CCN(CC2CC2)CC1 [AG-348, Mitapivat] | increased PK activity and ATP levels, as well as improved RBC parameters
27 | 94 | Cc1nc(CNC(=O)NCc2ncnn2-c2ccc(Cl)c(F)c2)n(-c2cnc3ccccc3c2)n1 [Compound 144, 1-{[1-(4-chloro-3-fluorophenyl)-1H-1,2,4-triazol-5-yl]methyl}-3-{[3-methyl-1-(quinolin-3-yl)-1H-1,2,4-triazol-5-yl]methyl}urea] | –
51 | 76 | O=C(NCc1ncnn1-c1ccc(Cl)c(F)c1)NCc1ncnn1-c1cnc2cc(F)ccc2c1 [Compound 145, 1-{[1-(4-chloro-3-fluorophenyl)-1H-1,2,4-triazol-5-yl]methyl}-3-{[1-(7-fluoroquinolin-3-yl)-1H-1,2,4-triazol-5-yl]methyl}urea] | –
